Square brackets hold non-standard residues; d marks the D form. Peptide text beside a SMILES is read from it.
System: sheep erythrocytes
Conditions: 50 μg per disk, Columbia blood agar plates, 37 °C, 24 h

SMILES | hemolysis
CC[C@H](C)[C@H](NC(=O)[C@@H]1CCCN1C(=O)[C@H](CC(C)C)NC(=O)[C@H](CC(C)C)NC(=O)[C@@H](CCCCN)NC(=O)[C@H](N)CCCCN)C(=O)N[C@H](C(=O)N[C@H](CCCCN)C(=O)N[C@@H](CC(N)=O)C(=O)N[C@@H](CC(C)C)C(=O)N[C@@H](CC(C)C)C(=O)N[C@H](CCCCN)C(=O)N[C@@H](CO)C(=O)N[C@@H](CC(C)C)C(=O)N[C@@H](CC(C)C)C(N)=O)C(C)C [D-Lys_TB_KKG6K] (H-[dK][dK]LLPIV[dK]NLL[dK]SLL-NH2) | did not induce the hemolysis
CC[C@H](C)[C@H](NC(=O)[C@@H]1CCCN1C(=O)[C@H](CC(C)C)NC(=O)[C@H](CC(C)C)NC(=O)[C@H](CCCCN)NC(=O)[C@@H](N)CCCCN)C(=O)N[C@H](C(=O)N[C@@H](CCCCN)C(=O)N[C@@H](CC(N)=O)C(=O)N[C@@H](CC(C)C)C(=O)N[C@@H](CC(C)C)C(=O)N[C@@H](CCCCN)C(=O)N[C@@H](CO)C(=O)N[C@@H](CC(C)C)C(=O)N[C@@H](CC(C)C)C(N)=O)C(C)C [TB_KKG6K] (H-KKLLPIVKNLLKSLL-NH2) | did not induce the hemolysis

From paper PMC8226839, “New Perspectives in the Antimicrobial Activity of the Amphibian Temporin B: Peptide Analogs Are Effective Inhibitors of Candida albicans Growth” (Journal of Fungi, 2021)
